Legend:
GLXMA = assay: Pre-emergence damage to crop plants; type: in vivo, Glycine max; settings: 80 g a.i./ha, comparative experiment
Source text: (§1) Seeds of monocotyledonous and dicotyledonous weed plants and crop plants are laid out in sandy loam soil in wood-fibre pots and covered with soil. The compounds of the invention, formulated in the form of wettable powders (WP) or as emulsion concentrates (EC), are then applied to the surface of the covering soil in the form of an aqueous suspension or emulsion at a water application rate equivalent to 600 to 800 l/ha, with addition of 0.2% wetting agent. After the treatment, the pots are placed in a greenhouse and kept under good growth conditions for the trial plants. The damage to the test plants is scored visually after a test period of 3 weeks by comparison with untreated controls (herbicidal activity in percent (%): 100% activity=the plants have died, 0% activity=like control plants). […] The tables below illustrate, in an illustrative manner, the post-emergence herbicidal action of the compounds of the invention, the herbicidal activity being stated in percent. In the experiments that follow, the herbicidal action of the compounds of the invention and that of the corresponding known racemic compounds closest from WO2012126932 and WO2018202535 were compared under the above-specified conditions by the pre-emergence and post-emergence method. The example numbers given in the tables relate to the compounds disclosed in the respective documents.

DIGSA [1] = assay: Pre-emergence herbicidal action; type: in vivo, Digitaria sanguinalis; settings: scored after 3 weeks
Source text: as §1, with “percent.” for “percent. In the experiments that follow, the herbicidal action of the compounds of the invention and that of the corresponding known racemic compounds closest from WO2012126932 and WO2018202535 were compared under the above-specified conditions by the pre-emergence and post-emergence method. The example numbers given in the tables relate to the compounds disclosed in the respective documents.”

TRZAS [2] = assay: Pre-emergence damage to crop plants; type: in vivo, Triticum aestiva; settings: comparative experiment
Source text: as §1

AMARE [3] = assay: Post-emergence herbicidal action; type: in vivo, Amaranthus retroflexus; settings: assessed after about 3 weeks
Protocol: (§2) Seeds of monocotyledonous and dicotyledonous weed and crop plants are laid out in sandy loam soil in wood-fibre pots, covered with soil and cultivated in a greenhouse under good growth conditions. 2 to 3 weeks after sowing, the test plants are treated at the one-leaf stage. The compounds of the invention, formulated in the form of wettable powders (WP) or as emulsion concentrates (EC), are then sprayed onto the green parts of the plants in the form of an aqueous suspension or emulsion at a water application rate equating to 600 to 800 l/ha, with addition of 0.2% wetting agent. After the test plants have been left to stand in the greenhouse under optimal growth conditions for about 3 weeks, the action of the preparations is assessed visually in comparison to untreated controls (herbicidal action in percent (%): 100% activity=the plants have died, 0% activity=like control plants). […] The tables below illustrate, in an illustrative manner, the post-emergence herbicidal action of the compounds of the invention, the herbicidal activity being stated in percent.

ZEAMX = assay: Pre-emergence damage to crop plants; type: in vivo, Zea mays; settings: comparative experiment
Source text: as §1

VIOTR [4] = assay: Pre-emergence herbicidal action; type: in vivo, Viola tricolor; settings: scored after 3 weeks
Source text: as §1, with “percent.” for “percent. In the experiments that follow, the herbicidal action of the compounds of the invention and that of the corresponding known racemic compounds closest from WO2012126932 and WO2018202535 were compared under the above-specified conditions by the pre-emergence and post-emergence method. The example numbers given in the tables relate to the compounds disclosed in the respective documents.”

PHBPU = assay: Post-emergence herbicidal action; type: in vivo, Pharbitis purpurea; settings: assessed after about 3 weeks
Protocol: as §2

VIOTR [5] = assay: Post-emergence herbicidal action; type: in vivo, Viola tricolor; settings: 20 g/ha, assessed after about 3 weeks
Protocol: as §2, with “percent. In the experiments that follow, the herbicidal action of the compounds of the invention and that of the corresponding known racemic compounds closest from WO2012126932 and WO2018202535 were compared under the above-specified conditions by the pre-emergence and post-emergence method. The example numbers given in the tables relate to the compounds disclosed in the respective documents.” for “percent.”

BRSNW = assay: Pre-emergence damage to crop plants; type: in vivo, Brassica napus; settings: 20 g a.i./ha, comparative experiment
Source text: as §1

ORYZA = assay: Post-emergence damage to crop plants; type: in vivo, Oryza sativa; settings: 5 g a.i./ha, comparative experiment
Protocol: as §2, with “percent. In the experiments that follow, the herbicidal action of the compounds of the invention and that of the corresponding known racemic compounds closest from WO2012126932 and WO2018202535 were compared under the above-specified conditions by the pre-emergence and post-emergence method. The example numbers given in the tables relate to the compounds disclosed in the respective documents.” for “percent.”

MATIN [6] = assay: Post-emergence herbicidal action; type: in vivo, Matricaria inodora; settings: 20 g/ha, assessed after about 3 weeks
Protocol: as §2

DIGSA [7] = assay: Post-emergence herbicidal action; type: in vivo, Digitaria sanguinalis; settings: assessed after about 3 weeks
Protocol: as §2, with “percent. In the experiments that follow, the herbicidal action of the compounds of the invention and that of the corresponding known racemic compounds closest from WO2012126932 and WO2018202535 were compared under the above-specified conditions by the pre-emergence and post-emergence method. The example numbers given in the tables relate to the compounds disclosed in the respective documents.” for “percent.”

MATIN [8] = assay: Pre-emergence herbicidal action; type: in vivo, Matricaria inodora; settings: 80 g/ha, scored after 3 weeks
Source text: as §1

ECHCG [9] = assay: Pre-emergence herbicidal action; type: in vivo, Echinochloa crus-galli; settings: scored after 3 weeks
Source text: as §1, with “percent.” for “percent. In the experiments that follow, the herbicidal action of the compounds of the invention and that of the corresponding known racemic compounds closest from WO2012126932 and WO2018202535 were compared under the above-specified conditions by the pre-emergence and post-emergence method. The example numbers given in the tables relate to the compounds disclosed in the respective documents.”

SETVI [10] = assay: Post-emergence herbicidal action; type: in vivo, Setaria viridis; settings: 20 g/ha, assessed after about 3 weeks
Protocol: as §2, with “percent. In the experiments that follow, the herbicidal action of the compounds of the invention and that of the corresponding known racemic compounds closest from WO2012126932 and WO2018202535 were compared under the above-specified conditions by the pre-emergence and post-emergence method. The example numbers given in the tables relate to the compounds disclosed in the respective documents.” for “percent.”

TRZAS [11] = assay: Post-emergence damage to crop plants; type: in vivo, Triticum aestiva; settings: comparative experiment
Protocol: as §2, with “percent. In the experiments that follow, the herbicidal action of the compounds of the invention and that of the corresponding known racemic compounds closest from WO2012126932 and WO2018202535 were compared under the above-specified conditions by the pre-emergence and post-emergence method. The example numbers given in the tables relate to the compounds disclosed in the respective documents.” for “percent.”

AMARE [12] = assay: Pre-emergence herbicidal action; type: in vivo, Amaranthus retroflexus; settings: scored after 3 weeks
Source text: as §1, with “percent.” for “percent. In the experiments that follow, the herbicidal action of the compounds of the invention and that of the corresponding known racemic compounds closest from WO2012126932 and WO2018202535 were compared under the above-specified conditions by the pre-emergence and post-emergence method. The example numbers given in the tables relate to the compounds disclosed in the respective documents.”

SETVI [13] = assay: Pre-emergence herbicidal action; type: in vivo, Setaria viridis; settings: 80 g/ha, scored after 3 weeks
Source text: as §1

ECHCG [14] = assay: Post-emergence herbicidal action; type: in vivo, Echinochloa crus-galli; settings: assessed after about 3 weeks
Protocol: as §2, with “percent. In the experiments that follow, the herbicidal action of the compounds of the invention and that of the corresponding known racemic compounds closest from WO2012126932 and WO2018202535 were compared under the above-specified conditions by the pre-emergence and post-emergence method. The example numbers given in the tables relate to the compounds disclosed in the respective documents.” for “percent.”

STEME [15] = assay: Pre-emergence herbicidal action; type: in vivo, Stellaria media; settings: scored after 3 weeks
Source text: as §1

STEME [16] = assay: Post-emergence herbicidal action; type: in vivo, Stellaria media; settings: 20 g/ha, assessed after about 3 weeks
Protocol: as §2, with “percent. In the experiments that follow, the herbicidal action of the compounds of the invention and that of the corresponding known racemic compounds closest from WO2012126932 and WO2018202535 were compared under the above-specified conditions by the pre-emergence and post-emergence method. The example numbers given in the tables relate to the compounds disclosed in the respective documents.” for “percent.”

Cc1c(C(=O)Nc2nnco2)ccc(C(F)(F)F)c1[S+](C)[O-] (stereo in doubt) [Example I-3, 2-methyl-N-(1,3,4-oxadiazol-2-yl)-3-[(S)-methylsulfinyl]-4-(trifluoromethyl)benzamide]
Damage to GLXMA (GLXMA): 50% | Pre-emergence action against DIGSA (DIGSA [1]; 20 g/ha): 100% | Pre-emergence action against DIGSA (DIGSA [1]; 80 g/ha): 100% | Damage to TRZAS (TRZAS [2]; 20 g a.i./ha): 0% | Damage to TRZAS (TRZAS [2]; 80 g a.i./ha): 30% | Post-emergence action against AMARE (AMARE [3]; 5 g/ha): 90% | Post-emergence action against AMARE (AMARE [3]; 20 g/ha): 90% | Damage to ZEAMX (ZEAMX; 20 g a.i./ha): 0% | Damage to ZEAMX (ZEAMX; 80 g a.i./ha): 0% | Pre-emergence action against VIOTR (VIOTR [4]; 20 g/ha): 90% | Pre-emergence action against VIOTR (VIOTR [4]; 80 g/ha): 100% | Post-emergence action against PHBPU (PHBPU; 5 g/ha): 80% | Post-emergence action against PHBPU (PHBPU; 20 g/ha): 80% | Post-emergence action against VIOTR (VIOTR [5]): 90% | Damage to BRSNW (BRSNW): 70% | Damage to ORYZA (ORYZA): 30% | Post-emergence action against MATIN (MATIN [6]): 80% | Post-emergence action against DIGSA (DIGSA [7]; 5 g/ha): 90% | Post-emergence action against DIGSA (DIGSA [7]; 20 g/ha): 90% | Pre-emergence action against MATIN (MATIN [8]): 90% | Pre-emergence action against ECHCG (ECHCG [9]; 20 g/ha): 90% | Pre-emergence action against ECHCG (ECHCG [9]; 80 g/ha): 100% | Post-emergence action against SETVI (SETVI [10]): 90% | Damage to TRZAS (TRZAS [11]; 5 g a.i./ha): 20% | Damage to TRZAS (TRZAS [11]; 20 g a.i./ha): 30% | Pre-emergence action against AMARE (AMARE [12]; 20 g/ha): 100% | Pre-emergence action against AMARE (AMARE [12]; 80 g/ha): 100% | Pre-emergence action against SETVI (SETVI [13]): 90% | Post-emergence action against ECHCG (ECHCG [14]; 5 g/ha): 80% | Post-emergence action against ECHCG (ECHCG [14]; 20 g/ha): 90% | Pre-emergence action against STEME (STEME [15]; 20 g/ha): 80% | Pre-emergence action against STEME (STEME [15]; 80 g/ha): 100% | Post-emergence action against STEME (STEME [16]): 80%

Cc1c(C(=O)Nc2nnco2)ccc(C(F)(F)F)c1[S+](C)[O-] (racemic) [1-144 from WO2012126932, 2-methyl-N-(1,3,4-oxadiazol-2-yl)-3-[(rac)-methylsulfinyl]-4-(trifluoromethyl)benzamide, reference compound]
Damage to GLXMA (GLXMA): 80% | Damage to TRZAS (TRZAS [2]; 20 g a.i./ha): 50% | Damage to TRZAS (TRZAS [2]; 80 g a.i./ha): 90% | Damage to ZEAMX (ZEAMX; 20 g a.i./ha): 20% | Damage to ZEAMX (ZEAMX; 80 g a.i./ha): 30% | Damage to BRSNW (BRSNW): 100% | Damage to ORYZA (ORYZA): 60% | Damage to TRZAS (TRZAS [11]; 5 g a.i./ha): 40% | Damage to TRZAS (TRZAS [11]; 20 g a.i./ha): 50%

From patent publication US20240174624A1, “CHIRAL N-(1,3,4-OXADIAZOLE-2-YL)PHENYL CARBOXYLIC ACID AMIDES AND THEIR USE AS HERBICIDES” (Bayer Aktiengesellschaft, priority 2021, published 2024)
